Test results as given in US20150105252A1, “SUBSTITUTED PYRAZOLES AS HERBICIDES” (E I DU PONT DE NEMOURS AND COMPANY, priority 2013, published 2015).

Tests used:
field violet = assay: Test D preemergence; assay type: in vivo, Viola arvensis; settings: Preemergence, scale 0 to 100
Summary of the method: (§1)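 Preemergence: seeds sown in silt loam soil and sprayed with test chemical in non-phytotoxic solvent mixture with surfactant. Postemergence: plants grown in peat/vermiculite medium, sprayed at 2–18 cm (1- to 4-leaf stage). Visual rating versus untreated controls after 14–21 days, 0 (no effect) to 100 (complete control).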

pigweed [1] = assay: Test D postemergence; assay type: in vivo, Amaranthus retroflexus; settings: scale 0 to 100
Summary of the method: as §1

ryegrass, Italian = assay: Test D preemergence; assay type: in vivo, Lolium multiflorum; settings: Preemergence, scale 0 to 100
Summary of the method: as §1

speedwell = assay: Test D preemergence; assay type: in vivo, Veronica persica; settings: Preemergence, scale 0 to 100
Summary of the method: as §1

bluegrass [2] = assay: Test D postemergence; assay type: in vivo, Poa annua; settings: scale 0 to 100
Summary of the method: as §1

buckwheat, wild = assay: Test D preemergence; assay type: in vivo, Polygonum convolvulus; settings: Preemergence, scale 0 to 100
Summary of the method: as §1

blackgrass = assay: Test D postemergence; assay type: in vivo, Alopecurus myosuroides; settings: scale 0 to 100
Summary of the method: as §1

chamomile [3] = assay: Test D postemergence; assay type: in vivo, Matricaria inodora; settings: scale 0 to 100
Summary of the method: as §1

barley, winter = assay: Test D preemergence; assay type: in vivo, Hordeum vulgare; settings: Preemergence, scale 0 to 100
Summary of the method: as §1

barley, spring = assay: Test D preemergence; assay type: in vivo, Hordeum vulgare; settings: Preemergence, scale 0 to 100
Summary of the method: as §1

mustard, wild = assay: Test D postemergence; assay type: in vivo, Sinapis arvensis; settings: scale 0 to 100
Summary of the method: as §1

canarygrass = assay: Test D preemergence; assay type: in vivo, Phalaris minor; settings: Preemergence, scale 0 to 100
Summary of the method: as §1

bluegrass [4] = assay: Test D preemergence; assay type: in vivo, Poa annua; settings: Preemergence, scale 0 to 100
Summary of the method: as §1

chamomile [5] = assay: Test D preemergence; assay type: in vivo, Matricaria inodora; settings: Preemergence, scale 0 to 100
Summary of the method: as §1

lambsquarters = assay: Test D postemergence; assay type: in vivo, Chenopodium album; settings: scale 0 to 100
Summary of the method: as §1

bromegrass, downy = assay: Test D postemergence; assay type: in vivo, Bromus tectorum; settings: scale 0 to 100
Summary of the method: as §1

deadnettle = assay: Test D preemergence; assay type: in vivo, Lamium amplexicaule; settings: Preemergence, scale 0 to 100
Summary of the method: as §1

pigweed [6] = assay: Test D preemergence; assay type: in vivo, Amaranthus retroflexus; settings: Preemergence, scale 0 to 100
Summary of the method: as §1

galium = assay: Test D postemergence; assay type: in vivo, Galium aparine; settings: scale 0 to 100
Summary of the method: as §1

radish, wild = assay: Test D postemergence; assay type: in vivo, Raphanus raphanistrum; settings: scale 0 to 100
Summary of the method: as §1

## CCCc1cc(C(=O)NC2CC2)nn1Cc1cc(C(F)(F)F)nn1C [Compound 202]
Field violet; 62 g ai/ha
  Plant response rating, Field Violet: 25
Field violet; 125 g ai/ha
  Plant response rating, Field Violet: 100
Field violet; 250 g ai/ha
  Plant response rating, Field Violet: 100
Pigweed [1]; Postemergence, 31 g ai/ha
  Pigweed plant response rating: 70
Pigweed [1]; Postemergence, 125 g ai/ha
  Pigweed plant response rating: 80
Pigweed [1]; Postemergence, 250 g ai/ha
  Pigweed plant response rating: 85
Pigweed [1]; postemergence, 62 g ai/ha
  Pigweed plant response rating: 70
ryegrass, Italian; 62 g ai/ha
  Plant response rating, Ryegrass, Italian: 0
ryegrass, Italian; 125 g ai/ha
  Plant response rating, Ryegrass, Italian: 40
ryegrass, Italian; 250 g ai/ha
  Plant response rating, Ryegrass, Italian: 80
speedwell; 62 g ai/ha
  Plant response rating, Speedwell: 100
speedwell; 125 g ai/ha
  Plant response rating, Speedwell: 100
speedwell; 250 g ai/ha
  Plant response rating, Speedwell: 100
Bluegrass [2]; Postemergence, 31 g ai/ha
  Bluegrass plant response rating: 20
Bluegrass [2]; Postemergence, 125 g ai/ha
  Bluegrass plant response rating: 25
Bluegrass [2]; Postemergence, 250 g ai/ha
  Bluegrass plant response rating: 35
Bluegrass [2]; postemergence, 62 g ai/ha
  Bluegrass plant response rating: 20
buckwheat, wild; 31 g ai/ha
  Plant response rating, Buckwheat, Wild: 35
buckwheat, wild; 62 g ai/ha
  Plant response rating, Buckwheat, Wild: 60
buckwheat, wild; 125 g ai/ha
  Plant response rating, Buckwheat, Wild: 100
buckwheat, wild; 250 g ai/ha
  Plant response rating, Buckwheat, Wild: 100
blackgrass; Postemergence, 31 g ai/ha
  Blackgrass plant response rating: 15
blackgrass; Postemergence, 125 g ai/ha
  Blackgrass plant response rating: 25
blackgrass; Postemergence, 250 g ai/ha
  Blackgrass plant response rating: 35
blackgrass; postemergence, 62 g ai/ha
  Blackgrass plant response rating: 15
Chamomile [3]; Postemergence, 31 g ai/ha
  Chamomile plant response rating: 55
Chamomile [3]; Postemergence, 125 g ai/ha
  Chamomile plant response rating: 60
Chamomile [3]; Postemergence, 250 g ai/ha
  Chamomile plant response rating: 65
Chamomile [3]; postemergence, 62 g ai/ha
  Chamomile plant response rating: 55
barley, winter; 31 g ai/ha
  Plant response rating, Barley, Winter: 0
barley, winter; 62 g ai/ha
  Plant response rating, Barley, Winter: 0
barley, winter; 125 g ai/ha
  Plant response rating, Barley, Winter: 25
barley, winter; 250 g ai/ha
  Plant response rating, Barley, Winter: 45
barley, spring; 31 g ai/ha
  Plant response rating, Barley, Spring: 0
barley, spring; 62 g ai/ha
  Plant response rating, Barley, Spring: 0
barley, spring; 125 g ai/ha
  Plant response rating, Barley, Spring: 55
barley, spring; 250 g ai/ha
  Plant response rating, Barley, Spring: 65
mustard, wild; Postemergence, 31 g ai/ha
  Mustard, Wild plant response rating: 70
mustard, wild; Postemergence, 125 g ai/ha
  Mustard, Wild plant response rating: 70
mustard, wild; Postemergence, 250 g ai/ha
  Mustard, Wild plant response rating: 75
mustard, wild; postemergence, 62 g ai/ha
  Mustard, Wild plant response rating: 70
canarygrass; 31 g ai/ha
  Plant response rating, Canarygrass: 10
canarygrass; 62 g ai/ha
  Plant response rating, Canarygrass: 40
canarygrass; 125 g ai/ha
  Plant response rating, Canarygrass: 75
canarygrass; 250 g ai/ha
  Plant response rating, Canarygrass: 85
Bluegrass [4]; 31 g ai/ha
  Plant response rating, Bluegrass: 10
Bluegrass [4]; 62 g ai/ha
  Plant response rating, Bluegrass: 5
Bluegrass [4]; 125 g ai/ha
  Plant response rating, Bluegrass: 50
Bluegrass [4]; 250 g ai/ha
  Plant response rating, Bluegrass: 80
Chamomile [5]; 31 g ai/ha
  Plant response rating, Chamomile: 5
Chamomile [5]; 62 g ai/ha
  Plant response rating, Chamomile: 100
Chamomile [5]; 125 g ai/ha
  Plant response rating, Chamomile: 100
Chamomile [5]; 250 g ai/ha
  Plant response rating, Chamomile: 100
lambsquarters; Postemergence, 31 g ai/ha
  Lambsquarters plant response rating: 50
lambsquarters; Postemergence, 125 g ai/ha
  Lambsquarters plant response rating: 60
lambsquarters; Postemergence, 250 g ai/ha
  Lambsquarters plant response rating: 80
lambsquarters; postemergence, 62 g ai/ha
  Lambsquarters plant response rating: 50
bromegrass, downy; Postemergence, 31 g ai/ha
  Bromegrass, Downy plant response rating: 25
bromegrass, downy; Postemergence, 125 g ai/ha
  Bromegrass, Downy plant response rating: 35
bromegrass, downy; Postemergence, 250 g ai/ha
  Bromegrass, Downy plant response rating: 35
bromegrass, downy; postemergence, 62 g ai/ha
  Bromegrass, Downy plant response rating: 25
deadnettle; 31 g ai/ha
  Plant response rating, Deadnettle: 100
deadnettle; 62 g ai/ha
  Plant response rating, Deadnettle: 100
deadnettle; 125 g ai/ha
  Plant response rating, Deadnettle: 100
deadnettle; 250 g ai/ha
  Plant response rating, Deadnettle: 100
Pigweed [6]; 62 g ai/ha
  Plant response rating, Pigweed: 100
Pigweed [6]; 125 g ai/ha
  Plant response rating, Pigweed: 100
Pigweed [6]; 250 g ai/ha
  Plant response rating, Pigweed: 100
galium; Postemergence, 31 g ai/ha
  Galium plant response rating: 70
galium; Postemergence, 125 g ai/ha
  Galium plant response rating: 70
galium; Postemergence, 250 g ai/ha
  Galium plant response rating: 75
galium; postemergence, 62 g ai/ha
  Galium plant response rating: 70
radish, wild; Postemergence, 31 g ai/ha
  Radish, Wild plant response rating: 55
radish, wild; Postemergence, 125 g ai/ha
  Radish, Wild plant response rating: 65
radish, wild; Postemergence, 250 g ai/ha
  Radish, Wild plant response rating: 75
radish, wild; postemergence, 62 g ai/ha
  Radish, Wild plant response rating: 55
